Assay results as given in patent US20250352549A1, “SUBSTITUTED HETEROCYCLIC COMPOUND DERIVATIVES AND THEIR PHARMACEUTICAL USE” (AVELOS THERAPEUTICS INC., priority 0001, published 2025).

Key:
[1] = molecular target: Wild-type human active MASTL (Homo sapiens (Human), UniProt Q96GX5); assay: MASTL activity assay; format: biochemical; details: ATP 18 μM, biotin tagged 40-mer ENSA peptide 10 nM, 60 minutes at room temperature, HTRF/FRET readout
Protocol: Wild-type human active MASTL (154 pM) was incubated in assay buffer (50 mM HEPES, 100 mM NaCl, 0.1 mM EGTA, 10 mM MgCl2, 0.01% Tween-20, 0.5 mM TCEP, pH 7.5) with biotin tagged 40-mer ENSA peptide (10 nM), test compound and ATP (18 μM) for 60 minutes at room temperature. Test compounds were assayed using a 12-point dose range consisting of a 0, DMSO control and 10 sequential doses consisting from 0.0005, 0.002, 0.005, 0.014, 0.04, 0.12, 0.37, 1.11, 3.33 and 10 μM. The DMSO concentration was the same (1%) in all samples. An equal volume of detection buffer (assay buffer+267.5 pM Ab-K, 1.25 nM SA-D2, 20 mM EDTA and 400 mM KF) was added to stop the reaction to make a final volume of 20 μl, RT for 60 mins. Activity was measured using a plate reader (PerkinElmer EnSight) by the FRET signal generated between SA-D2 (streptavidin-D2) and Ab-K (anti-phospho-Serine 67 ENSA antibody (rabbit polyclonal, using standard techniques by a commercial supplier) conjugated to Cryptate). HTRF reagents (CisBio) were prepared as per the manufacturer recommendations. The 40-mer biotin-tagged ENSA peptide (synthesised by Bionics) used was based around Serine 67 on ENSA ([…]).

T cells = details: disclosed in CN 116942819; cited from earlier work
[2] = system: breast cancer MDA-MB-468 cells; details: disclosed in CN 116942819; cited from earlier work
[3] = system: breast cancer MDA-MB-231 cells; details: disclosed in CN 116942819; cited from earlier work

Chain of Wild-type human active MASTL (Q96GX5 whole entry): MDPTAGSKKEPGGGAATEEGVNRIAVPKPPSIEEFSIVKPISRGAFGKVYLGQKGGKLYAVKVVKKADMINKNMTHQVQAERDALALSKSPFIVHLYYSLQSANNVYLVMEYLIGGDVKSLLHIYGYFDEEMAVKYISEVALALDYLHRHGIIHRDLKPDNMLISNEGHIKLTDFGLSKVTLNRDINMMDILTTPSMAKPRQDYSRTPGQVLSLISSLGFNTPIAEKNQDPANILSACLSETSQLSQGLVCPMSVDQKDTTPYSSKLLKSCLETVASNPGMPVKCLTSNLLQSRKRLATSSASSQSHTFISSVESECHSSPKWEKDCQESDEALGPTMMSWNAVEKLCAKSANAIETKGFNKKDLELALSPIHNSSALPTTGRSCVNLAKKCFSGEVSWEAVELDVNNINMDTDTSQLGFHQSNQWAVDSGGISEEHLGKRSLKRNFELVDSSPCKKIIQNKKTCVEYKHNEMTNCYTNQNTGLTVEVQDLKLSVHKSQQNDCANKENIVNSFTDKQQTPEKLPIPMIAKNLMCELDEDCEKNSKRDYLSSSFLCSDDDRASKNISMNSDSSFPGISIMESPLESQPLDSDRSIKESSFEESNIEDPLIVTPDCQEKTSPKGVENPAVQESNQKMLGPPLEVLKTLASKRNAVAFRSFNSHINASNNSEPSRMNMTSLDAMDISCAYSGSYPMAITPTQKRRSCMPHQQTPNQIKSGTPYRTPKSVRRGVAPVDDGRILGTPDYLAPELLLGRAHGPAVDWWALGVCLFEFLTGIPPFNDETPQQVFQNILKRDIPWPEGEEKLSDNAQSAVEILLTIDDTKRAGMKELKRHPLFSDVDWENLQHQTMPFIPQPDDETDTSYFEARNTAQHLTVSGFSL

IC50 [1]	SMILES	other results
1 to 500 nM	Cc1ncc2ccc(-c3nc(N)nc(NC(c4c[nH]c(C(F)(F)F)n4)C4CCCCC4)n3)cn12 (single isomer, unassigned) [Example 153A, N4-[(S or R)-cyclohexyl-[2-(trifluoromethyl)-1H-imidazol-4-yl]methyl]-6-(3-methylimidazo[1,5-a]pyridin-6-yl)-1,3,5-triazine-2,4-diamine]	
1 to 500 nM	Cc1ncc2ccc(-c3nc(N)nc(NC(c4c[nH]c(C(F)(F)F)n4)C4CCCCC4)n3)cn12 (single isomer, unassigned) [Example 153B, N4-[(S or R)-cyclohexyl-[2-(trifluoromethyl)-1H-imidazol-4-yl]methyl]-6-(3-methylimidazo[1,5-a]pyridin-6-yl)-1,3,5-triazine-2,4-diamine]	
500 to 1000 nM	Cc1nc([C@H](Nc2nc(N)nc(-c3ccc4cnc(C)n4c3)n2)C(C)C)c[nH]1 (single isomer, unassigned) [Example 155A, 6-(3-methylimidazo[1,5-a]pyridin-6-yl)-N4-[(1S or 1R)-2-methyl-1-(2-methyl-1H-imidazol-4-yl)propyl]-1,3,5-triazine-2,4-diamine]	
1 to 500 nM	Cc1nc([C@@H](Nc2nc(N)nc(-c3ccc4cnc(C)n4c3)n2)C(C)C)c[nH]1 (single isomer, unassigned) [Example 155B, 6-(3-methylimidazo[1,5-a]pyridin-6-yl)-N4-[(1S or 1R)-2-methyl-1-(2-methyl-1H-imidazol-4-yl)propyl]-1,3,5-triazine-2,4-diamine]	
> 1000 nM	CC(C)CC(Nc1nc(N)nc(-c2ccc3cnn(C)c3c2)n1)c1c[nH]c(C(F)(F)F)n1 (single isomer, unassigned) [Example 180A, 6-(1-methylindazol-6-yl)-N4-[(1R or 1S)-3-methyl-1-[2-(trifluoromethyl)-1H-imidazol-4-yl]butyl]-1,3,5-triazine-2,4-diamine]	
1 to 500 nM	CC(C)CC(Nc1nc(N)nc(-c2ccc3cnn(C)c3c2)n1)c1c[nH]c(C(F)(F)F)n1 (single isomer, unassigned) [Example 180B, 6-(1-methylindazol-6-yl)-N4-[(1R or 1S)-3-methyl-1-[2-(trifluoromethyl)-1H-imidazol-4-yl]butyl]-1,3,5-triazine-2,4-diamine]	
	O=C(Nc1nc2ccccc2[nH]1)c1cccc(-n2cccc2)c1 [MKI-1]	anti-tumor function of T cells (T cells): effectively enhance the anti-tumor function of T cells; effect on the up-regulation of the interferon-induced PD-L1 expression [2]: remarkable inhibition effect; effect on PD-L1 expression of tumor cells which expressed PD-L1 in a high level and were not affected by interferon [3]: not possible to effect
